# Reference: article PMC12467033, “Exploring the Inhibitory Potential of Six Porphyrin Compounds Against α-Amylase and α-Glucosidase Linked to Diabetes” (Biomolecules, 2025)
# “And” between values parts separate entries of the source, which are not always exact repeats. Equal values may be shown once. Read-outs that look alike come from different tables or passages of the source.
# Tests used:
# α-amylase [1] = molecular target: T1, α-amylase (Sus scrofa, UniProt P00690); experiment: Mode of α-AMY inhibition (reversibility, Lineweaver–Burk kinetics); assay type: biochemical
# T1 sequence (P00690 16-511): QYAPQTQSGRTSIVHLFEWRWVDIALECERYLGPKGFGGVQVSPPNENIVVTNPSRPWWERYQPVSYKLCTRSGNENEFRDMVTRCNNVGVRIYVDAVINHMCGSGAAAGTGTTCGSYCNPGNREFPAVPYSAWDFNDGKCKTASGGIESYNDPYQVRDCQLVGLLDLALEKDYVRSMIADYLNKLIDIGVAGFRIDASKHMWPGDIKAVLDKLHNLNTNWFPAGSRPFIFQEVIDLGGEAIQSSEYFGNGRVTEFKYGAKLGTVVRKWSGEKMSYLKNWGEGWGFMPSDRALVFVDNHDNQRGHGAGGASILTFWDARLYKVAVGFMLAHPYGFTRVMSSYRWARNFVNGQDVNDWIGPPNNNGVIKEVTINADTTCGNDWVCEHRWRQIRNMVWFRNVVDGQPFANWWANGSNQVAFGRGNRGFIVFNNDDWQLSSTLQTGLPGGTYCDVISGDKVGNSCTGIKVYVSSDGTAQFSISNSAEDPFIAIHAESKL
# Text: (§1) In the experiment, the concentration of the fixed substrate Gal-G2-α-CNP/pNPG solution was 5 mmol/L, and the concentrations of the two enzymes (100, 200, 300, 400 U/L) were used to determine the effect of different concentrations of porphyrins on enzyme activity. The concentration of the enzyme was 200 U/L, and the concentration of the substrate Gal-G2-α-CNP/pNPG solution (2.5, 5, 7.5, 10 mmol/L) was used to determine the effect of different concentrations of porphyrins on the enzyme-catalyzed substrate activity.
# (§2) Upon identifying the type of inhibition, the kinetic equations vary for different inhibition types.
# (§3) In the formula, v, Vmax, Km, Ki, and Kis represent the reaction rate, maximum reaction rate, Michaelis constant, and free enzyme inhibition constant, respectively, and the binding enzyme inhibition constant. [S] denotes the substrate concentration. [I] denotes the inhibitor concentration.
# α-glucosidase [2] = molecular target: T2, α-glucosidase (Saccharomyces cerevisiae, UniProt P53341); assay type: biochemical
# Text: as §1, §2, §3
# α-glucosidase [3] = molecular target: T2, α-glucosidase; experiment: Fluorescence quenching, binding and thermodynamics with α-glucosidase
# Procedure: In the α-amylase experiment, a series of porphyrins and amylase (200 U/L) were mixed in a volume ratio of 1:1. In the α-glucosidase experiment, the glucosidase concentration was 400 U/L, mixed in a volume ratio of 1:1; the samples were maintained at three different temperatures (298, 304, and 310 K) for 30 min, with excitation at 280 nm and emission scanning from 300 to 500 nm.
# The Stern–Volmer equation [35] was adopted to determine the quenching mechanisms between six porphyrin compounds and both enzymes in the experimental group, with Formula (6):(6) F0/F=1+Ksv[Q]=1+Kqτ0[Q]
# The Stern–Volmer equation was adapted based on experimental data to more accurately characterize the quenching behavior [36], with Formula (7):(7) F0/F=e^Ksv[Q]=e^Kqτ0[Q]
# In the formula, the fluorescence quenching ratio was calculated as F0/F, where F0 corresponds to the emission intensity of pure α-amylase solution (control) and F denotes the intensity measured after the incremental addition of porphyrin ligands. KSV and Kq denote the Stern–Volmer quenching constant and the bimolecular quenching rate constant, respectively, τ0 (10^−8 s) is the average fluorescence lifetime of the fluorophore in the absence of quencher, and [Q] indicates the concentration of porphyrin compounds.
# Due to the presence of an internal filtration effect, a decrease in the fluorescence intensity of the system may occur. Therefore, all fluorescence data were corrected using Formula (8) to eliminate the internal filtration effect.(8) Fcor=Fobse^(Aex+Aem)/2
# The evaluation of the interaction forces between porphyrin compounds and the two enzymes can be achieved by calculating thermodynamic parameters. When both ΔH^0 and ΔS^0 are positive, the predominant interaction force is hydrophobic. When both ΔH^0 and ΔS^0 are negative, the main forces are hydrogen bonding and van der Waals forces. When ΔH^0 < 0 and ΔS^0 > 0, the primary interaction is electrostatic attraction.
# The thermodynamic parameters were calculated using Formulas (9) and (10), and then the Van’t Hoff plot for the interactions between the porphyrin compounds and the two enzymes was generated by plotting lnKa on the Y-axis versus 1/T on the X-axis.(9) lnKa=−ΔH^0/RT+ΔS^0/R (10) ΔG^0=ΔH^0−TΔS^0=−RTlnKa
# α-amylase [4] = molecular target: T1, α-amylase; experiment: Three-dimensional fluorescence spectroscopy of α-amylase complexes; conditions: 298 K; TAPP 2.5, THPP 10, TCPP 10, Fe–TCPP 12.5, Ni–TCPP 17.5, Cu–TCPP 10 μg/mL
# Procedure: At 298 K, with excitation wavelengths ranging from 200 to 600 nm (2 nm increments) and emission wavelengths from 200 to 600 nm, the influence of small molecules on enzyme conformation was assessed by examining peaks in 3D fluorescence spectra [41].
# α-amylase [5] = molecular target: T1, α-amylase; experiment: FTIR secondary structure analysis of α-AMY complexes; conditions: enzyme–porphyrin molar ratio 1:2, amide I band
# Text: (§4) A molar ratio of 1:2 (α-amylase/α-glucosidase)–porphyrin solution was placed in a cryocentrifugal concentrator and the dried solid sample was mixed with dry KBr and measured using a Nicolet IS-50 FTIR Spectrometer (ThermoFisher, Waltham, MA, USA) with a scanning range of 4000–400 cm^−1 and a resolution of 4 cm^−1. The overlapping peaks in the amide I band (1700–1600 cm^−1) were further analyzed into multiple feature sub-peaks, and quantitative analysis of the relative content of various secondary structures in proteins using curve fitting methods was performed.
# α-glucosidase [6] = molecular target: T2, α-glucosidase; experiment: FTIR secondary structure analysis of α-GLU complexes; conditions: enzyme–porphyrin molar ratio 1:2, amide I band
# Text: as §4
# [7] = enzyme 100–400 U/L, substrate 5 mmol/L
# [8] = enzyme–substrate complex inhibition constant
# [9] = free enzyme inhibition constant
# T2 sequence (P53341 whole entry): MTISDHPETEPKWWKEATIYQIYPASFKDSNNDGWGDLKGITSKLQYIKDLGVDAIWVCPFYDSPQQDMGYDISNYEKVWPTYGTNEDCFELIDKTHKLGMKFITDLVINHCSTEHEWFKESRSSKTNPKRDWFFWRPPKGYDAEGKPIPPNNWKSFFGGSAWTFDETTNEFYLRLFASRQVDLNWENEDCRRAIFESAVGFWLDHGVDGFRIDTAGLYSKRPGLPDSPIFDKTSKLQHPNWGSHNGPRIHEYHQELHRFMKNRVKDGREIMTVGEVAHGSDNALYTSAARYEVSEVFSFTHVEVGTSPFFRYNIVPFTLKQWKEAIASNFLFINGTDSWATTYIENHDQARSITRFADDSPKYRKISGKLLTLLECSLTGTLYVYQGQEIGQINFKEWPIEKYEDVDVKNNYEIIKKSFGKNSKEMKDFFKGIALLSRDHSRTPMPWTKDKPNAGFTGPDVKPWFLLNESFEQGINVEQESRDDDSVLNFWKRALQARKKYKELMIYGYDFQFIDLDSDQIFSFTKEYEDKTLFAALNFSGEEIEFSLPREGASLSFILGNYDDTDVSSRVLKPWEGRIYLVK
smiles,measurement,setting,value
"O=C(O)c1ccc(-c2c3nc(c(-c4ccc(C(=O)O)cc4)c4ccc([nH]4)c(-c4ccc(C(=O)O)cc4)c4nc(c(-c5ccc(C(=O)O)cc5)c5ccc2[nH]5)C=C4)C=C3)cc1.[Cu+2] [Cu–TCPP, copper (II) meso-tetra (4-carboxyphenyl)porphyrin]",Km,α-amylase [1]; C 25 μg/mL,2.8021 ± 0.0410 µg/mL
same,Vmax,α-amylase [1]; C 25 μg/mL,0.1101 ± 0.0016 ΔOD/min
same,Km,α-amylase [1]; C 50 μg/mL,3.1685 ± 0.0729 µg/mL
same,Vmax,α-amylase [1]; C 50 μg/mL,0.1050 ± 0.0024 ΔOD/min
same,Km,α-amylase [1]; C 100 μg/mL,3.5949 ± 0.0569 µg/mL
same,Vmax,α-amylase [1]; C 100 μg/mL,0.0923 ± 0.0015 ΔOD/min
same,Km,α-amylase [1]; C 150 μg/mL,3.9016 ± 0.1355 µg/mL
same,Vmax,α-amylase [1]; C 150 μg/mL,0.0860 ± 0.0031 ΔOD/min
same,Km,α-amylase [1]; C 200 μg/mL,4.2470 ± 0.0673 µg/mL
same,Vmax,α-amylase [1]; C 200 μg/mL,0.0785 ± 0.0012 ΔOD/min
same,type of inhibition of α-amylase,α-amylase [1]; Lineweaver–Burk plots,mixed type
same,reversibility of inhibition of α-amylase,α-amylase [1]; [7],reversible inhibition
same,Kis,α-amylase [1]; [8],420.9420 ± 0.2189 µg/mL
same,Ki,α-amylase [1]; [9],135.8043 ± 0.1608 µg/mL
same,Km,α-glucosidase [2],3.3657 ± 0.0431 µg/mL and 3.8284 ± 0.1475 µg/mL and 4.7824 ± 0.1009 µg/mL and 5.4948 ± 0.1841 µg/mL and 6.4626 ± 0.1103 µg/mL
same,Vmax,α-glucosidase [2]; C 5 μg/mL,0.1496 ± 0.0019 ΔOD/min
same,Vmax,α-glucosidase [2]; C 10 μg/mL,0.1344 ± 0.0052 ΔOD/min
same,Vmax,α-glucosidase [2]; C 25 μg/mL,0.1028 ± 0.0022 ΔOD/min
same,Vmax,α-glucosidase [2]; C 50 μg/mL,0.0718 ± 0.0024 ΔOD/min
same,Vmax,α-glucosidase [2]; C 100 μg/mL,0.0473 ± 0.0008 ΔOD/min
same,type of inhibition of α-glucosidase,α-glucosidase [2]; Lineweaver–Burk plots,mixed type
same,reversibility of inhibition of α-glucosidase,α-glucosidase [2]; [7],reversible inhibition
same,Kis,α-glucosidase [2]; [8],38.9429 ± 0.1021 µg/mL
same,Ki,α-glucosidase [2]; [9],13.7332 ± 0.0823 µg/mL
same,binding constants K,α-glucosidase [3]; 310 K,(0.69 ± 0.01) × 10^5 L·mol^−1
same,quenching mechanism of α-glucosidase fluorescence,"α-glucosidase [3]; Stern–Volmer plots, 298–310 K",static quenching
same,Ka (binding constant),α-glucosidase [3]; T 298 K,55.21 ± 0.11 ×10^5 L/mol
same,Kq,α-glucosidase [3]; T 298 K,7.35 ± 0.09 ×10^12 L/mol/s
same,Ksv,α-glucosidase [3]; T 298 K,7.35 ± 0.09 ×10^4 L/mol
same,n (number of binding sites),α-glucosidase [3]; T 298 K,1.44
same,ΔG^0,α-glucosidase [3]; T 298 K,-38.46 ± 0.08 kJ/mol
same,Ka (binding constant),α-glucosidase [3]; T 304 K,7.38 ± 0.04 ×10^5 L/mol
same,Kq,α-glucosidase [3]; T 304 K,6.74 ± 0.03 ×10^12 L/mol/s
same,Ksv,α-glucosidase [3]; T 304 K,6.74 ± 0.03 ×10^4 L/mol
same,n (number of binding sites),α-glucosidase [3]; T 304 K,1.25
same,ΔG^0,α-glucosidase [3]; T 304 K,-34.15 ± 0.05 kJ/mol
same,Ka (binding constant),α-glucosidase [3]; T 310 K,0.69 ± 0.01 ×10^5 L/mol
same,Kq,α-glucosidase [3]; T 310 K,5.05 ± 0.02 ×10^12 L/mol/s
same,Ksv,α-glucosidase [3]; T 310 K,5.05 ± 0.02 ×10^4 L/mol
same,n (number of binding sites),α-glucosidase [3]; T 310 K,1.03
same,ΔG^0,α-glucosidase [3]; T 310 K,-28.70 ± 0.04 kJ/mol
same,ΔH^0,"α-glucosidase [3]; Van’t Hoff, 298–310 K",-280.76 ± 0.13 kJ/mol
same,ΔS^0,"α-glucosidase [3]; Van’t Hoff, 298–310 K",−812.45 ± 0.17 J/mol/k
same,Peak 1 Fluorescence Intensity,α-amylase [4],313.1
same,Peak 2 Fluorescence Intensity,α-amylase [4],16.48
same,Random Coil,α-amylase [5],20.94 ± 0.06%
same,α-Helix,α-amylase [5],20.76 ± 0.05%
same,β-Antiparallel,α-amylase [5],12.17 ± 0.02%
same,β-Sheet,α-amylase [5],10.94 ± 0.01%
same,β-Turn,α-amylase [5],35.19 ± 0.06%
same,Random Coil,α-glucosidase [6],25.05 ± 0.07%
same,α-Helix,α-glucosidase [6],23.65 ± 0.03%
same,β-Antiparallel,α-glucosidase [6],2.59 ± 0.01%
same,β-Sheet,α-glucosidase [6],10.93 ± 0.05%
same,β-Turn,α-glucosidase [6],37.78 ± 0.09%
